The record followed here is patent US20260258032A1, “TYROSINE KINASE 2 INHIBITORS AND USES THEREOF” (BIOGEN MA INC., priority 2022, published 2026).

SMILES strings stand for the structures. Structures can show the parent of a compound that is named as a salt.

One experiment addresses T1, JH2 domain of human Tyk2 (Homo sapiens, UniProt P29597).
T1 construct: 10×His-tagged TYK2 JH2 domain (amino acid 575-876)
Nature of the experiment: JH2 biochemical assay (TR-FRET probe displacement). The format is binding. Particulars: JH2 biochemical assay. The method in brief: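 A probe-displacement TR-FRET readout: compounds, tested in 3-fold, 10-point dilutions starting at […], compete with 2 nM tracer for 2 nM His-tagged JH2 (residues 575-876) detected by 0.1 nM Tb-anti-His over 60 min. IC50 comes from 4-parameter fits of normalized 520/495 nm ratios.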

Experiment [1] relates to Tyk2 kinase activity on STAT4. Nature of the experiment: pSTAT4 cell assay (MSD, NK92 cells). The note with it: compounds 1 hr, stimulated 15 minutes. The format is cell-based. Put shortly:
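Cells natively expressing STAT4 and Tyk2 (NK92) are serum-starved to lower background phosphorylation, exposed to compound for 1 hr over a 10-point four-fold series starting at 10 μM, and stimulated with 30 ng/mL IL2 for 15 minutes. Phosphorylation is quantified on MSD with anti-STAT4 antibodies.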

T1 sequence (P29597 575-876): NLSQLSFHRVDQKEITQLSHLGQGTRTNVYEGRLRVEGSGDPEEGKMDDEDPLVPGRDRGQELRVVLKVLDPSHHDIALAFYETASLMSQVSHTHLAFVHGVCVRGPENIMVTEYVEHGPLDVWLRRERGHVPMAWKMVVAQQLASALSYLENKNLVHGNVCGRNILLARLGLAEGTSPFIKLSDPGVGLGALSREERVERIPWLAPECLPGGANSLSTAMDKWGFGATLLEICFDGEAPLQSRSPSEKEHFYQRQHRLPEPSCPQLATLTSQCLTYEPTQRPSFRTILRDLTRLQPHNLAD

`CC(=O)Nc1cc2c(cn1)C1(CC1)CN2c1cc(=O)[nH]c(C(C)(F)F)n1` [Example 133, N-(1′-(2-(1,1-difluoroethyl)-6-oxo-1,6-dihydropyrimidin-4-yl)-1′,2′-dihydrospiro[cyclopropane-1,3′-pyrrolo[3,2-c]pyridin]-6′-yl)acetamide]: the figures for the half-maximal inhibitory concentration (IC50) (at JH2 domain of human Tyk2; in experiment [1]) were ≤ 0.01 µM and ≥ 1 µM, respectively.
`CC(=O)Nc1cc2c(cn1)C1(CC1)CN2c1cc(C)nc(S(C)(=O)=O)n1` [Example 136, N-(1′-(6-methyl-2-(methylsulfonyl)pyrimidin-4-yl)-1′,2′-dihydrospiro[cyclopropane-1,3′-pyrrolo[3,2-c]pyridin]-6′-yl)acetamide]: the IC50 (usually the midpoint of a concentration-inhibition curve) at JH2 domain of human Tyk2 is ≤ 0.01 µM; in experiment [1] it was 0.01 to 0.1 µM.
The corresponding values for `COC1CCN(c2nc(C)cc(N3CC4(CC4)c4cnc(NC(C)=O)cc43)n2)C1` (stereo not shown) [Example 137, N-(1′-(2-(3-methoxypyrrolidin-1-yl)-6-methylpyrimidin-4-yl)-1′,2′-dihydrospiro[cyclopropane-1,3′-pyrrolo[3,2-c]pyridin]-6′-yl)acetamide] are ≤ 0.01 µM and 0.1 to 1 µM.
With `CC(=O)Nc1cc2c(cn1)C1(CC1)CN2c1cc(C)nc(OC2CCC2)n1` [Example 138, N-(1′-(2-cyclobutoxy-6-methylpyrimidin-4-yl)-1′,2′-dihydrospiro[cyclopropane-1,3′-pyrrolo[3,2-c]pyridin]-6′-yl)acetamide], the IC50 at JH2 domain of human Tyk2 was 0.01 to 0.1 µM; in experiment [1] it was ≥ 1 µM.
On to `CC(=O)Nc1cc2c(cn1)C1(CC1)CN2c1cc(OCCN(C)C)nc(C(C)(F)F)n1` [Example 140, N-(1′-(2-(1,1-difluoroethyl)-6-(2-(dimethylamino)ethoxy)pyrimidin-4-yl)-1′,2′-dihydrospiro[cyclopropane-1,3′-pyrrolo[3,2-c]pyridin]-6′-yl)acetamide trifluoroacetate], for which the IC50 was 0.01 to 0.1 µM on JH2 domain of human Tyk2 and ≥ 1 µM in experiment [1].
With `CC(=O)Nc1cc2c(cn1)C1(CC1)CN2c1cc(OC2COC2)nc(C(C)(F)F)n1` [Example 141, N-(1′-(2-(1,1-difluoroethyl)-6-(oxetan-3-yloxy)pyrimidin-4-yl)-1′,2′-dihydrospiro[cyclopropane-1,3′-pyrrolo[3,2-c]pyridin]-6′-yl)acetamide], the 50% inhibitory concentration (IC50) on JH2 domain of human Tyk2 is ≤ 0.01 µM; in experiment [1], 0.1 to 1 µM.
Regarding `CC(=O)Nc1cc2c(cn1)C1(CC1)CN2c1cc(Oc2cncnc2)nc(C(C)(F)F)n1` [Example 142, N-(1′-(2-(1,1-difluoroethyl)-6-(pyrimidin-5-yloxy)pyrimidin-4-yl)-1′,2′-dihydrospiro[cyclopropane-1,3′-pyrrolo[3,2-c]pyridin]-6′-yl)acetamide trifluoroacetate], the IC50 at JH2 domain of human Tyk2 is 0.01 to 0.1 µM; in experiment [1], ≥ 1 µM.
The like results for `CC(=O)Nc1cc2c(cn1)C1(CC1)CN2c1cc(Oc2ccn(C)n2)nc(C(C)(F)F)n1` [Example 143, N-(1′-(2-(1,1-difluoroethyl)-6-((1-methyl-1H-pyrazol-3-yl)oxy)pyrimidin-4-yl)-1′,2′-dihydrospiro[cyclopropane-1,3′-pyrrolo[3,2-c]pyridin]-6′-yl)acetamide trifluoroacetate] were, in that order, ≤ 0.01 µM and 0.1 to 1 µM.
As to `CC(=O)Nc1cc2c(cn1)C1(CC1)CN2c1cc(OC2(C#N)CC2)nc(C(C)(F)F)n1` [Example 144, N-(1′-(6-(1-cyanocyclopropoxy)-2-(1,1-difluoroethyl)pyrimidin-4-yl)-1′,2′-dihydrospiro[cyclopropane-1,3′-pyrrolo[3,2-c]pyridin]-6′-yl)acetamide trifluoroacetate], the IC50 on JH2 domain of human Tyk2 was 0.01 to 0.1 µM; in experiment [1], ≥ 1 µM.
The corresponding values for `CC(=O)Nc1cc2c(cn1)C1(CC1)CN2c1cc(Oc2cnn(C)c2)nc(C(C)(F)F)n1` [Example 145, N-(1′-(2-(1,1-difluoroethyl)-6-((1-methyl-1H-pyrazol-4-yl)oxy)pyrimidin-4-yl)-1′,2′-dihydrospiro[cyclopropane-1,3′-pyrrolo[3,2-c]pyridin]-6′-yl)acetamide trifluoroacetate] are 0.01 to 0.1 µM and 0.1 to 1 µM.
For the molecule `CC(=O)Nc1cc2c(cn1)C1(CC1)CN2c1cc(Oc2cnnn2C)nc(C(C)(F)F)n1` [Example 149, N-(1′-(2-(1,1-difluoroethyl)-6-((1-methyl-1H-1,2,3-triazol-5-yl)oxy)pyrimidin-4-yl)-1′,2′-dihydrospiro[cyclopropane-1,3′-pyrrolo[3,2-c]pyridin]-6′-yl)acetamide trifluorocetate], the IC50 at JH2 domain of human Tyk2 was 0.01 to 0.1 µM; in experiment [1] it was ≥ 1 µM.
Regarding `CC(=O)Nc1cc2c(cn1)C1(CC1)CN2c1cc(OC(C)C#N)nc(C(C)(F)F)n1` (stereo not shown) [Example 151, N-(1′-(6-(1-cyanoethoxy)-2-(1,1-difluoroethyl)pyrimidin-4-yl)-1′,2′-dihydrospiro[cyclopropane-1,3′-pyrrolo[3,2-c]pyridin]-6′-yl)acetamide trifluoroacetate], the IC50 on JH2 domain of human Tyk2 was 0.01 to 0.1 µM; in experiment [1], ≥ 1 µM.
`CC(=O)Nc1cc2c(cn1)C1(CC1)CN2c1cc(OC(C#N)C2CC2)nc(C(C)(F)F)n1` (stereo not shown) [Example 152, N-(1′-(6-(cyano(cyclopropyl)methoxy)-2-(1,1-difluoroethyl)pyrimidin-4-yl)-1′,2′-dihydrospiro[cyclopropane-1,3′-pyrrolo[3,2-c]pyridin]-6′-yl)acetamide trifluoroacetate]: the results for the half-maximal inhibitory concentration (IC50) (on JH2 domain of human Tyk2; in experiment [1]) were 0.01 to 0.1 µM and 0.1 to 1 µM, respectively.
The like results for `CC(=O)Nc1cc2c(cn1)C1(CC1)CN2c1cc(NC(C)C)nc(C(C)(F)F)n1` [Example 153, N-(1′-(2-(1,1-difluoroethyl)-6-(isopropylamino)pyrimidin-4-yl)-1′,2′-dihydrospiro[cyclopropane-1,3′-pyrrolo[3,2-c]pyridin]-6′-yl)acetamide trifluoroacetate] were, in that order, ≤ 0.01 µM and 0.01 to 0.1 µM.
The like results for `CC(=O)Nc1cc2c(cn1)C1(CC1)CN2c1cc(NCC2CC2)nc(C(C)(F)F)n1` [Example 154, N-(1′-(6-((cyclopropylmethyl)amino)-2-(1,1-difluoroethyl)pyrimidin-4-yl)-1′,2′-dihydrospiro[cyclopropane-1,3′-pyrrolo[3,2-c]pyridin]-6′-yl)acetamide trifluoroacetate] were, in that order, ≤ 0.01 µM and ≤ 0.01 µM.
For the molecule `CC(=O)Nc1cc2c(cn1)C1(CC1)CN2c1cc(NC2CCOCC2)nc(C(C)(F)F)n1` [Example 155, N-(1′-(2-(1,1-difluoroethyl)-6-((tetrahydro-2H-pyran-4-yl)amino)pyrimidin-4-yl)-1′,2′-dihydrospiro[cyclopropane-1,3′-pyrrolo[3,2-c]pyridin]-6′-yl)acetamide], the IC50 at JH2 domain of human Tyk2 was ≤ 0.01 µM; in experiment [1], 0.01 to 0.1 µM.
The like results for `CCCNc1cc(N2CC3(CC3)c3cnc(NC(C)=O)cc32)nc(C(C)(F)F)n1` [Example 156, N-(1′-(2-(1,1-difluoroethyl)-6-(propylamino)pyrimidin-4-yl)-1′,2′-dihydrospiro[cyclopropane-1,3′-pyrrolo[3,2-c]pyridin]-6′-yl)acetamide trifluoroacetate] were, in that order, ≤ 0.01 µM and ≤ 0.01 µM.
The corresponding values for `CC(=O)Nc1cc2c(cn1)C1(CC1)CN2c1cc(NC2CCC2)nc(C(C)(F)F)n1` [Example 157, N-(1′-(6-(cyclobutylamino)-2-(1,1-difluoroethyl)pyrimidin-4-yl)-1′,2′-dihydrospiro[cyclopropane-1,3′-pyrrolo[3,2-c]pyridin]-6′-yl)acetamide trifluoroacetate] are ≤ 0.01 µM and ≤ 0.01 µM.
Regarding `COC(C)(C)CNc1cc(N2CC3(CC3)c3cnc(NC(C)=O)cc32)nc(C(C)(F)F)n1` [Example 158, N-(1′-(2-(1,1-difluoroethyl)-6-((2-methoxy-2-methylpropyl)amino)pyrimidin-4-yl)-1′,2′-dihydrospiro[cyclopropane-1,3′-pyrrolo[3,2-c]pyridin]-6′-yl)acetamide trifluoroacetate], the IC50 (on JH2 domain of human Tyk2; in experiment [1]) was ≤ 0.01 µM throughout.
Consider `CC(=O)Nc1cc2c(cn1)C1(CC1)CN2c1cc(NCC2(F)CC2)nc(C(C)(F)F)n1` [Example 160, N-(1′-(2-(1,1-difluoroethyl)-6-(((1-fluorocyclopropyl)methyl)amino)pyrimidin-4-yl)-1′,2′-dihydrospiro[cyclopropane-1,3′-pyrrolo[3,2-c]pyridin]-6′-yl)acetamide trifluoroacetate], for which the concentration for half-maximal inhibition (IC50) on JH2 domain of human Tyk2 is ≤ 0.01 µM; in experiment [1], 0.01 to 0.1 µM.
As to `COC1(CNc2cc(N3CC4(CC4)c4cnc(NC(C)=O)cc43)nc(C(C)(F)F)n2)CC1` [Example 161, N-(1′-(2-(1,1-difluoroethyl)-6-(((1-methoxycyclopropyl)methyl)amino)pyrimidin-4-yl)-1′,2′-dihydrospiro[cyclopropane-1,3′-pyrrolo[3,2-c]pyridin]-6′-yl)acetamide trifluoroacetate], the half-inhibitory concentration (IC50) was ≤ 0.01 µM at JH2 domain of human Tyk2 and 0.01 to 0.1 µM in experiment [1].
As for `CC(=O)Nc1cc2c(cn1)C1(CC1)CN2c1cc(NC[C@H]2CCO2)nc(C(C)(F)F)n1` [Example 162, (R)-N-(1′-(2-(1,1-difluoroethyl)-6-((oxetan-2-ylmethyl)amino)pyrimidin-4-yl)-1′,2′-dihydrospiro[cyclopropane-1,3′-pyrrolo[3,2-c]pyridin]-6′-yl)acetamide], the IC50 on JH2 domain of human Tyk2 was ≤ 0.01 µM; in experiment [1], 0.01 to 0.1 µM.
For `CC(=O)Nc1cc2c(cn1)C1(CC1)CN2c1cc(NC[C@@H]2CCO2)nc(C(C)(F)F)n1` [Example 163, (S)-N-(1′-(2-(1,1-difluoroethyl)-6-((oxetan-2-ylmethyl)amino)pyrimidin-4-yl)-1′,2′-dihydrospiro[cyclopropane-1,3′-pyrrolo[3,2-c]pyridin]-6′-yl)acetamide], the figures for the IC50 (at JH2 domain of human Tyk2; in experiment [1]) were ≤ 0.01 µM and 0.01 to 0.1 µM, respectively.
